# Assay results taken from patent US20100144708A1, “HETEROCYCLIC COMPOUNDS CONTAINING NITROGEN ATOMS OR PHARMACEUTICALLY ACCEPTABLE SALTS THEREOF, PROCESS FOR THE PREPARATION THEREOF AND PHARMACEUTICAL COMPOSITION COMPRISING THE SAME FOR TREATMENT OF CANCER” (Korea Research Instititute of Bioscience and Biotechnology, priority 2006, published 2010).
# Legend:
# Type in all cases: cell-based, Human
# ACHN (kidney cancer) = experiment: Test for inhibition of tumor cell growth (SRB), ACHN; details: 48 hours, SRB staining; for GI50: Homo sapiens, ACHN
# Procedure, shortened: (§1)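 Cells seeded in RPMI 1640 with 5% FBS, exposed to compound (final […], units as printed) for 48 hours at 37° C with 5% CO2, including a time-zero plate. TCA-fixed, SRB-stained, absorbance at 540 nm as percent of control; GI50 is the 50% growth-inhibition concentration.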
# NUGC-3 (gastric cancer) = experiment: Test for inhibition of tumor cell growth (SRB), NUGC-3; details: 48 hours, SRB staining; for GI50: Homo sapiens, NUGC-3
# Procedure, shortened: as §1
# PC-3 (prostate cancer) = experiment: Test for inhibition of tumor cell growth (SRB), PC-3; details: 48 hours, SRB staining; for GI50: Homo sapiens, read-out: GI50 PC-3 (prostate ancer)
# Procedure, shortened: as §1
# [1] = test system: MBA-MB-231 (breast cancer); experiment: Test for inhibition of tumor cell growth (SRB), MBA-MB-231; details: 48 hours, SRB staining; for GI50: Homo sapiens
# Procedure, shortened: as §1
Structure (SMILES),GI50 (ACHN (kidney cancer)) [µg/mL],GI50 (NUGC-3 (gastric cancer)) [µg/mL],GI50 (PC-3 (prostate cancer)) [µg/mL],GI50 [1] [µg/mL],GI50 ACHN (kidney cancer) (ACHN (kidney cancer)) [µg/mL],GI50 NUGC-3 (gastric cancer) (NUGC-3 (gastric cancer)) [µg/mL],GI50 PC-3 (prostate ancer) (PC-3 (prostate cancer)) [µg/mL],GI50 MBA-MB-231 (breast cancer) [1] [µg/mL]
"CCCCCCCCCCCCCCS(=O)(=O)N1CC[N+](CC)(CC)CC1 [Example 94, 1,1-diethyl-4-(tetradecane-1-sulfonyl)piperazin-1-ium iodide]",0.31,0.37,0.53,0.46,–,–,–,–
"CCCCCCCCCCCCCCS(=O)(=O)N1CC[N+](C)(CC)CC1 [Example 95, 1-ethyl-1-methyl-4-(tetradecane-1-sulfonyl)piperazin-1-ium iodide]",0.46,2.24,0.35,0.64,–,–,–,–
"CCCCCCCCCCCCCCCCCCS(=O)(=O)N1CC[N+](C)(Cc2ccc(F)cc2)CC1 [Example 96, 1-(4-fluorobenzyl)-1-methyl-4-(octadecane-1-sulfonyl)piperazin-1-ium bromide]",3.25,2.73,0.48,0.6,–,–,–,–
"CCCCCCCCCCCCS(=O)(=O)N1CC[N+](CC)(Cc2ccc(F)cc2)CC1 [Example 97, 4-(dodecane-1-sulfonyl)-1-ethyl-1-(4-fluorobenzyl)piperazin-1-ium bromide]",1.21,0.66,0.7,1.43,–,–,–,–
"CCCCCCCCCCCCS(=O)(=O)N1CC[N+](CC)(Cc2cccc([N+](=O)[O-])c2)CC1 [Example 98, 4-(dodecane-1-sulfonyl)-1-ethyl-1-(3-nitrobenzyl)piperazin-1-ium bromide]",1.05,0.28,0.35,1.01,–,–,–,–
"CCCCCCCCCS(=O)(=O)N1CC[N+](C)(CC)CC1 [Example 99, 1-ethyl-1-methyl-4-(nonane-1-sulfonyl)piperazin-1-ium iodide]",> 10,> 10,> 10,> 10,–,–,–,–
"CCCCCCCCCS(=O)(=O)N1CC[N+](CC)(Cc2ccccc2)CC1 [Example 100, 1-benzyl-1-ethyl-4-(nonane-1-sulfonyl)piperazin-1-ium bromide]",> 10,1.73,4.08,> 10,–,–,–,–
"C=CC[N+]1(CC)CCN(S(=O)(=O)CCCCCCCCC)CC1 [Example 101, 1-allyl-1-ethyl-4-(nonane-1-sulfonyl)piperazin-1-ium bromide]",> 10,3.28,2.34,> 10,–,–,–,–
"CCCCCCCCCS(=O)(=O)N1CC[N+](C)(C)CC1 [Example 102, 1,1-dimethyl-4-(nonane-1-sulfonyl)piperazin-1-ium iodide]",> 10,> 10,> 10,> 10,–,–,–,–
"CCCCCCCCCS(=O)(=O)N1CC[N+](C)(Cc2ccccc2)CC1 [Example 103, 1-benzyl-1-methyl-4-(nonane-1-sulfonyl)piperazin-1-ium bromide]",> 10,3.45,1.25,> 10,–,–,–,–
"CCCCCCCCCS(=O)(=O)N1CC[N+](C)(Cc2ccc(F)cc2)CC1 [Example 104, 1-(4-fluorobenzyl)-1-methyl-4-(nonane-1-sulfonyl)piperazin-1-ium bromide]",> 10,> 10,3.45,> 10,–,–,–,–
"CCCCCCCCCCS(=O)(=O)N1CC[N+](C)(Cc2cccc(C)c2)CC1 [Example 106, 4-(decane-1-sulfonyl)-1-methyl-1-(3-methylbenzyl)piperazin-1-ium bromide]",4.13,1.6,0.61,3.56,–,–,–,–
"CCCCCCCCCCS(=O)(=O)N1CC[N+](C)(Cc2ccc(C)cc2)CC1 [Example 107, 4-(decane-1-sulfonyl)-1-methyl-1-(4-methylbenzyl)piperazin-1-ium bromide]",> 10,2.72,1.05,> 10,–,–,–,–
"CCCCCCCCCCCCS(=O)(=O)N1CC[N+](C)(Cc2cccc(C)c2)CC1 [Example 108, 4-(dodecane-1-sulfonyl)-1-methyl-1-(3-methylbenzyl)piperazin-1-ium bromide]",1.42,0.65,0.45,1.19,–,–,–,–
"C=CC[N+]1(C)CCN(S(=O)(=O)CCCCCCCCCCC)CC1 [Example 112, 1-allyl-1-methyl-4-(undecane-1-sulfonyl)piperazin-1-ium bromide]",1.69,1.75,0.43,1.75,–,–,–,–
"CCCCCCCCCCCCCCS(=O)(=O)N1CC[N+](CC)(Cc2ccccc2)CC1 [Example 113, 1-benzyl-1-ethyl-4-(tetradecane-1-sulfonyl)piperazin-1-ium bromide]",1.05,1.22,0.41,1.23,–,–,–,–

Structure (SMILES),GI50 (ACHN (kidney cancer)) [µg/mL],GI50 (NUGC-3 (gastric cancer)) [µg/mL],GI50 (PC-3 (prostate cancer)) [µg/mL],GI50 [1] [µg/mL],GI50 ACHN (kidney cancer) (ACHN (kidney cancer)) [µg/mL],GI50 NUGC-3 (gastric cancer) (NUGC-3 (gastric cancer)) [µg/mL],GI50 PC-3 (prostate ancer) (PC-3 (prostate cancer)) [µg/mL],GI50 MBA-MB-231 (breast cancer) [1] [µg/mL]
"CCCCCCCCCCCCCCCCCCS(=O)(=O)N1CC[N+](CC)(Cc2ccc(C(C)(C)C)cc2)CC1 [Example 114, 1-(4-t-butylbenzyl)-1-ethyl-4-(octadecane-1-sulfonyl)piperazin-1-ium bromide]",2.32,3.16,2.01,2.24,–,–,–,–
"CCCCCCCCCCCCCCCCCCS(=O)(=O)N1CC[N+](C)(Cc2ccccc2)CC1 [Example 115, 1-benzyl-1-methyl-4-(octadecane-1-sulfonyl)piperazin-1-ium bromide]",2.01,1.07,0.48,0.91,–,–,–,–
"CCCCCCCCCCCCCCCC(=O)N1CCC[N+](C)(CC)CC1 (centres unmarked) [Example 116, 1-ethyl-1-methyl-4-palmitoyl-1,4-diazepan-1-ium iodide]",0.29,0.25,0.36,0.59,–,–,–,–
"CCCCCCCCCCCC(=O)N1CCC[N+](C)(C)CC1 [Example 117, 4-dodecanoyl-1,1-dimethyl-1,4-diazepan-1-ium iodide]",1.07,0.6,0.5,2.68,–,–,–,–
"C=CC[N+]1(C)CCCN(C(=O)CCCCCCCCCCC)CC1 (centres unmarked) [Example 118, 1-allyl-4-dodecanoyl-1-methyl-1,4-diazepan-1-ium bromide]",2.18,0.87,0.78,3.84,–,–,–,–
"CCCCCCCCCCCC(=O)N1CCC[N+](C)(Cc2ccc(OC)cc2)CC1 (centres unmarked) [Example 119, 4-dodecanoyl-1-(4-methoxybenzyl)-1-methyl-1,4-diazepan-1-ium chloride]",1.48,0.36,0.57,2.48,–,–,–,–
"C=CC[N+]1(C)CCCN(C(=O)CCCCCCCCCCCCCCC)CC1 (centres unmarked) [Example 120, 1-allyl-1-methyl-4-palmitoyl-1,4-diazepan-1-ium bromide]",0.74,0.2,0.75,1.44,–,–,–,–
"CCCCCCCCCCCCCCCC(=O)N1CCC[N+](C)(Cc2ccc(F)cc2)CC1.[Br-] (centres unmarked) [Example 121, 1-(4-fluorobenzyl)-1-methyl-4-palmitoyl-1,4-diazepan-1-him bromide]",–,–,–,–,1.09,0.63,0.46,0.83
"CCCCCCCCCCCCCCCC(=O)N1CCC[N+](C)(C)CC1 [Example 122, 4-hexadecanoyl-1,1-dimethyl-1,4-diazepan-1-ium iodide]",0.4,0.21,0.4,0.94,–,–,–,–
"CCCCCCCCCCCCCC(=O)N1CCC[N+](C)(C)CC1 [Example 123, 1,1-dimethyl-4-tetradecanoyl-1,4-diazepan-1-ium iodide]",0.49,0.08,0.36,0.98,–,–,–,–
"CCCCCCCCCCCCCC(=O)N1CCC[N+](C)(Cc2ccccc2)CC1 (centres unmarked) [Example 124, 1-benzyl-1-methyl-4-tetradecanoyl-1,4-diazepan-1-ium bromide]",1,0.31,0.45,1.16,–,–,–,–
"CCCCCCCCCCCCCCCC(=O)N1CCC[N+](C)(Cc2ccccc2)CC1 (centres unmarked) [Example 125, 1-benzyl-1-methyl-4-palmitoyl-1,4-diazepan-1-ium bromide]",0.8,0.53,0.35,0.86,–,–,–,–
"C=CC[N+]1(C)CCCN(C(=O)CCCCCCCCCCCCC)CC1 (centres unmarked) [Example 127, 1-allyl-1-methyl-4-tetradecanoyl-1,4-diazepan-1-ium bromide]",0.44,0.26,0.18,0.45,–,–,–,–
"CCCCCCCCCCCCCC(=O)N1CCC[N+](C)(Cc2cccc([N+](=O)[O-])c2)CC1 (centres unmarked) [Example 128, 1-methyl-1-(3-nitrobenzyl)-4-tetradecanoyl-1,4-diazepan-1-ium bromide]",0.82,0.46,0.18,0.71,–,–,–,–
"CCCCCCCCCCCCCCCCCC(=O)N1CCC[N+](C)(C)CC1 [Example 129, 1,1-dimethyl-4-stearoyl-1,4-diazepan-1-ium iodide]",0.57,0.26,0.24,0.67,–,–,–,–
"CCCCCCCCCCCCCC(=O)N1CCC[N+](C)(Cc2ccc(F)cc2)CC1 (centres unmarked) [Example 133, 1-(4-fluorobenzyl)-1-methyl-4-tetradecanoyl-1,4-diazepan-1-ium bromide]",1.1,0.94,0.45,1.48,–,–,–,–
